Experiment [1] has as its system Monoclonal anti-phenylcyclidine antibody. Kind of experiment: Ion-capture acridinium labeled chemiluminescence competitive binding immunoassay for phenylcyclidine (PCP) in urine. To be noted: for Signal Counts: integrated for eight seconds, 0 ng/mL: 188329. The method, then:
Monoclonal anti-phenylcyclidine antibody was labeled with acridinium sulfonamide using EDAC coupling procedures known in the art. It was kept in the same buffer used for the anti-core conjugate of Example 3.
80 μL of IMx Tris buffer solution followed by 80 μL Celquat™ L-200 solutions were dispensed on the glass fiber matrices of the disposable reaction tray. Solutions were dispensed using two FMI-RH pumps and controlled via a triac board by an Intel 310 Development System (Intel Inc., Sunnyvale, Calif.). The tray was moved on a linear track using a timing belt and a stepper motor. The stepper motor was controlled by a board employing components known in the art. After 4.8 minutes, 50 μL of calibrator (sample) was pipetted into the shallow reaction wells of a disposable reaction tray, using an automated pipettor. 50 μL of acridinium labeled anti-PCP antibodies was dispensed into each incubation well. The mixture was incubated for 9.6 minutes in a heated tunnel at 32° C. with the disposable device moving into the tunnel by the timing belt in steps at the rate of 0.8 inches per minute, the reaction tray being stationary for 36 seconds after each step for a reaction step to take place. After 9.6 minutes incubation on the moving timing belt, 50 μL a solution containing PCP-PGA capture reagent at a concentration of 1.9 mg PGA/mL was dispensed into the incubation well through a tip centered on the well. The capture reagent solution was dispensed by an FMI-RH pump and controlled by the 310 Development system through a triac interface board. The reaction mixture was further incubated for 9.6 minutes. The quaternary ammonium polymer-treated glass fiber matrices were rinsed with 100 μL of the IMx buffer before reaction mixture transfer.
As the disposable tray was positioned under the transfer device as described herein, the reaction mixture was transferred and washed from the shallow incubation well onto the pre-treated glass fiber matrix in the detection well. The disposable tray was moved on the timing belt to allow subsequent well pairs to be located under the transfer device and to affect transfer of the reaction mixture. The disposable device was then moved to a read position, where the chemiluminescence detection head of the present invention was lowered to mate with the surface feature on the first two wells on the disposable to create a light-tight seal. The retained and immobilized immune complex on the glass fiber matrix was triggered using 0.3% alkaline peroxide solution in 0.25M NaOH and the signal from each PMT/amplifier was controlled by a counter/timer board and each side was triggered with an independent pump. The photon counter signal was integrated for eight seconds.

For a further experiment, the system named is anti-PCP antibody. Put plainly: Fluorescence polarization competitive binding assay in solution (TDx), fluorescein-labeled PCP analog. To be noted: 0 ng/mL: 198. (Polarisation of emitted light reports the rotation of a fluorescent probe.)
For experiment [2], the system named is Anti-phenylcyclidine antibodies. Kind of experiment: Ion-capture alkaline phosphatase labeled chemiluminescence competitive binding immunoassay for phenylcyclidine in urine. To be noted: 0 ng/mL: 3526.

As a reminder, the % Inhibition is the share of the control response that was lost under treatment. A low value points to little suppression.

Molecules are shown by their SMILES.

In the case of `c1ccc(C2(N3CCCCC3)CCCCC2)cc1` [Phenylcyclidine, phenylcyclidine], the “% Inhibition” value came out at 73.3% in experiment [1] (25 ng/mL PCP in human urine); 83.6% in experiment [1] (60 ng/mL PCP in human urine); 87.3% in experiment [1] (120 ng/mL PCP in human urine); 89.2% in experiment [1] (250 ng/mL PCP in human urine); 89.5% in experiment [1] (500 ng/mL PCP in human urine). The “Signal Counts” value in experiment [1] (25 ng/mL PCP in human urine) is given as 50347 counts; in experiment [1] (60 ng/mL PCP in human urine), 30839 counts; in experiment [1] (120 ng/mL PCP in human urine) it was 23977 counts; in experiment [1] (250 ng/mL PCP in human urine), 20379 counts; in experiment [1] (500 ng/mL PCP in human urine), 19759 counts. Also, the “Net Polarization” value in the experiment on anti-PCP antibody (Table 4, 25 ng/mL) is 173 ΔmP; with anti-PCP antibody (Table 4, 60 ng/mL), 144 ΔmP; in the experiment on anti-PCP antibody (Table 4, 250 ng/mL), 82 ΔmP; with anti-PCP antibody (Table 5, 25 ng/mL) it was 173; in the experiment with anti-PCP antibody (Table 5, 60 ng/mL), 144; with anti-PCP antibody (Table 5, 120 ng/mL), 112. The “Net Polarization” value is 82 with anti-PCP antibody (Table 5, 250 ng/mL) and 65 in the experiment on anti-PCP antibody (Table 5, 500 ng/mL). Besides, the Chemiluminescence signal in experiment [2] (25 ng/mL phenylcyclidine in human urine) turned out to be 2162 counts/6 seconds; in experiment [2] (60 ng/mL phenylcyclidine in human urine), 1440 counts/6 seconds; in experiment [2] (250 ng/mL phenylcyclidine in human urine), 1016 counts/6 seconds.

These data come from US5089424A, “Method and apparatus for heterogeneous chemiluminescence assay” (Abbott Laboratories, priority 1989, dated 1992).
